This passage reports blood glucose level and blood triglyceride level results from US20070142427A1, “Noncyclic 1,3-Dicarbonyl compounds as dual PPAR agonists with potent antihyperglycemic and antihyperlipidemic activity” (Shenzhen Chipscreen Biosciences Ltd., priority 2002, published 2007).

The test system of assay [1] is db/db mice. In words: Blood glucose lowering in db/db mice in vivo. Conditions: male db/db mice, once daily gavage for 9 days; measured at day 9 after 3 hours fasting after dosing, tail blood, Bayer Strips (FIG. 3). The method, then:
7 week-old male db/db (C57BLKS/J-m+/+Lepr^db) mice (n=10) from Jackson Laboratories (Bar Harbor, Me.) were treated once daily with indicated doses of the compound by gavage feeding at each morning for 9 consecutive days. All animals were maintained under standardized conditions (12-hour light/dark cycle, 22° C.). At day 9 of the treatment, blood glucose level was measured after 3 hours fasting after dosing by taking tail blood using Bayer Strips.

Assay [2] has as its system db/db mice. The experiment in a line: Blood triglyceride lowering in db/db mice in vivo. The following applies: male db/db mice, once daily gavage for 9 days; measured at day 9 after 3 hours fasting after dosing, tail blood, Roche Strips (FIG. 4). The method, then:
7 week-old male db/db (C57BLKS/J-m+/+Lepr^db) mice (n=10) from Jackson Laboratories (Bar Harbor, Me.) were treated once daily with indicated doses of the compound by gavage feeding at each morning for 9 consecutive days. All animals were maintained under standardized conditions (12-hour light/dark cycle, 22° C.). At day 9 of the treatment, blood triglyceride level was measured after 3 hours fasting after dosing by taking tail blood using Roche Strips.

With `COC(=O)C(Cc1ccc(OCCOc2ccc3c(c2)CCCC3)cc1)C(=O)OC` [CS-01300012, dimethyl 4-[2-(5,6,7,8-tetrahydro-2-naphthoxy)ethoxy] benzylmalonate], the blood glucose level result in assay [1] is given as “effective in lowering blood glucose level”. In addition, in assay [2], the blood triglyceride level entry is on record as “effective in lowering blood triglyceride level”.
